The source of these data is ChEMBL document CHEMBL1134261, “Synthesis of anticonvulsive AMPA antagonists: 4-oxo-10-substituted-imidaz” (Bioorg Med Chem Lett, 2001).

Assay [1] has as its target Glutamate NMDA receptor. The assay can be described thus: Displacement of [3H]DCKA from glycine NMDA receptor of rat cortical membranes. Format: cell membranes, Membrane. (In general: Displacement assays read how much labelled ligand stays bound in the presence of the test substance.)
For assay [2], the system named is Mus musculus. The assay can be described thus: In vivo effective dose required to protect 6 male CD1 mice against tonic convulsions following iv administration for a pretreatment time of 60 min. Format: functional.
Assay [3] deals with Mus musculus. Put plainly: In vivo effective dose required to protect 6 male CD1 mice against tonic convulsions following iv administration for a pretreatment time of 5 min. Format: functional.
The species named for assay [4] is Xenopus sp. The assay can be described thus: Inhibition of currents generated by 50 uM kainate in Xenopus oocytes injected with rat brain mRNA. Format: functional, organism-based, frog.
Assay [5] deals with Glutamate receptor ionotropic, AMPA (Rattus norvegicus, UniProt P19490+P19491+P19492+P19493). Put plainly: Displacement of [3H]AMPA from Ionotropic glutamate receptor AMPA of rat cortical membranes. Format: cell membranes, Membrane.
The subject of assay [6] is Mus musculus. Put plainly: In vivo effective dose required to protect 6 male CD1 mice against tonic convulsions following ip administration for a pretreatment time of 30 min. Format: functional.
The subject of assay [7] is Mus musculus. Put plainly: In vivo effective dose required to protect 6 male CD1 mice against tonic convulsions following iv administration for a pretreatment time of 30 min. It counts as functional.

In the case of `CC1(CCCCC(=O)O)c2ccccc2-c2nc(O)c3nc(C(=O)O)cn3c21` (configuration not stated), the values for the IC50 in assay [1], in assay [4] and in assay [5] were 134 nM, 22 nM and 242 nM, respectively. In addition, the median effective dose (ED50) – broadly, the dose at which the effect has come halfway, by size or by number of responders – in assay [2] was 15 mg/kg; in assay [3] it was 9.5 mg/kg; in assay [6], 10 mg/kg.
With `O=c1[nH]c2cc(-n3ccnc3)c([N+](=O)[O-])cc2[nH]c1=O` [YM-90K], the ED50 in assay [2] is 40 mg/kg; in assay [3], 6.2 mg/kg; in assay [7], 24 mg/kg. The IC50 (in general, the concentration needed to halve the response being measured) in assay [4] was 260 nM.
For the molecule `O=C(O)[C@@H]1C[C@H]2C[C@@H](CCc3nn[nH]n3)CC[C@H]2CN1` [TEZAMPANEL ANHYDROUS], in assay [4], 233 nM corresponded to half-maximal inhibition (IC50).
In the case of `O=C(O)c1cn2c3c(nc(O)c2n1)-c1ccccc1C3N1CC=CC1=O` (configuration not stated), the results for the IC50 in assay [1] and in assay [5] were 184 nM and 23 nM, respectively. In addition, the figures for the median effective dose (ED50) in assay [3] and in assay [6] were 7.7 mg/kg and 20 mg/kg, respectively.
On to `NC1c2ccccc2-c2nc(O)c3nc(C(=O)O)cn3c21` (configuration not stated), for which the IC50 in assay [1] came to 158 nM; in assay [4], 130 nM; in assay [5] it was 93 nM. The ED50 in assay [2] is greater than 40 mg/kg; in assay [3], 7 mg/kg; in assay [7], 25 mg/kg; in assay [6], 19 mg/kg.
Regarding `O=C(O)CCC(=O)NC1c2ccccc2-c2nc(O)c3nc(C(=O)O)cn3c21` (configuration not stated), the IC50 in assay [1] came out at 230 nM; in assay [4], 6 nM; in assay [5], 35 nM. Further, the ED50 in assay [2] was found to be 3 mg/kg; in assay [3], 1.7 mg/kg; in assay [7], 1.7 mg/kg; in assay [6] it was 2.5 mg/kg.
Take `O=C(O)CCCO/N=C1\c2ccccc2-c2nc(O)c3nc(C(=O)O)cn3c21`: the 50% inhibitory concentration (IC50) in assay [1] is 1400 nM; in assay [4], 5 nM; in assay [5], 44 nM. Also, in assay [6], the median effective dose (ED50) is greater than 80 mg/kg.
On to `O=C(O)c1cn2c3c(nc(O)c2n1)-c1ccccc1C3=O`, for which the IC50 worked out at 422 nM in assay [1], 320 nM in assay [4] and 580 nM in assay [5].
For the molecule `Oc1nc2c(n3ccnc13)Cc1ccccc1-2`, the IC50 in assay [4] stood at 1800 nM.
On to `O=c1[nH]c2cc(C(F)(F)F)c(N3CCOCC3)cc2n(CP(=O)(O)O)c1=O` [FANAPANEL], for which the concentration for half-maximal inhibition (IC50) in assay [1] is greater than 10000 nM; in assay [4] it was 31 nM. Further, the 50% effective dose (ED50) in assay [3] and in assay [6] was 36 mg/kg throughout.
For the molecule `O=C(O)c1cn2c3c(nc(O)c2n1)-c1ccccc1C3n1cccc1` (configuration not stated), the IC50 turned out to be 32 nM in assay [1], 60 nM in assay [4] and 55 nM in assay [5]. Also, the median effective dose (ED50) came to 17 mg/kg in assay [2], 10 mg/kg in assay [3], 15 mg/kg in assay [7] and 26 mg/kg in assay [6].
Consider `O=C(Nc1ccccc1)NC1c2ccccc2-c2nc(O)c3nc(C(=O)O)cn3c21` (configuration not stated), for which the results for the concentration for half-maximal inhibition (IC50) in assay [1], in assay [4] and in assay [5] were 18 nM, 30 nM and 159 nM, respectively. Further, in assay [6], the ED50 was 80 mg/kg.
Regarding `O=Nc1c2n3cc(C(=O)O)[nH]c3c(O)nc-2c2ccccc12`, the IC50 in assay [1] is 593 nM; in assay [4], 130 nM; in assay [5], 167 nM. Besides, in assay [6], the ED50 is greater than 80 mg/kg.
Regarding `O=C(O)c1cn2c3c(nc(O)c2n1)-c1ccccc1C3`, in assay [4], half-maximal inhibition (IC50) was put at 29 nM.
